{"source": "patent US20240217946A1", "about": "“ANTIDEPRESSANT AND ANXIOLYTIC SUBSTITUTED CINNAMAMIDE COMPOUND” (TASLY PHARMACEUTICAL GROUP CO., LTD., priority 2021, published 2024)", "key": {"mice [1]": {"test_system": "mice", "details": "10 mg/kg for 7 days; cited from earlier work"}, "mice [2]": {"test_system": "mice", "details": "mouse, in vivo; cited from earlier work"}, "mice [3]": {"test_system": "mice", "details": "Patent C; cited from earlier work"}, "mice [4]": {"test_system": "mice", "details": "10 mg/kg continuously for 7 days; cited from earlier work"}, "ICR mice": {"test_system": "ICR mice", "experiment": "Elevated plus maze experiment in mice, single administration", "type": "in vivo", "details": "for OE % / OT %: 30 min after single administration; for anxiolytic activity in elevated plus maze vs solvent control group: comparative study, single intragastric administration of 20 mg/kg", "procedure": "50 male ICR mice were randomly divided into 5 groups (a solvent control group, estazolam group, M2 high dosage group, M2 medium dosage group, M2 low dosage group), with 10 mice in each group. The compound M2 high, medium and low dosage groups were intragastrically administered at 20 mg/kg. 10 mg/kg and 5 mg/kg, respectively; the positive drug estazolam was intragastrically administered at 2.5 mg/kg; and the solvent control group was gavaged with an equal volume of solvent. Behavior test was performed in each group 30 min after single administration. The experiments were required to be conducted between 8:00 am and […], and all animals entered the test laboratory on the previous day.\nThe laboratory was dimly lit (with the lowest brightness that can distinguish the subtle activities of mice at a distance of 1.5 m) and the brightness was kept constant, with a room temperature of about 20° C., and kept quiet. Before the maze test, each mouse was placed in a 35 cm*10 cm*5 cm plastic box and left to explore freely for 5 min and then quickly placed at the central platform of an elevated plus maze, with its head facing one of the open arms, and the following indexes were recorded upon release. Each mouse was tested for 5 min. Observers observed and recorded animal activities at a distance of 1.5 m. At intervals, the maze was wiped with a wet cloth to remove feces, and then wiped with a dry cloth before a next mouse was tested.\n• (1) The number of open arm entries (OE): the number of entries into any open arm, based on the fact that all four claws of the mouse entered the arm, and a complete exit of one claw from the arm indicated the completion of the entry activity; • (2) open arm time (OT): the time of entering an open arm, with the unit of seconds; • (3) the number of close arm entries (CE): the number of entries into any close arm, based on the fact that all four claws of the mouse entered the arm; • (4) close arm time (CT): the time of entering a close arm, with the unit of seconds; • (5) percentage of open arm time: OT %=OT/(OT+CT)*100%; and • (6) percentage of open arm entries: OE %=OE/(OE+CE)*100%.\n70 male ICR mice were randomly divided into 7 groups (a solvent control group, estazolam group, compound M2 group, compound II-3 group, compound II-4 group, compound II-5 group, and compound II-10 group), with 10 mice in each group. The dosage of M2 and its four structurally similar compounds was determined as 20 mg/kg according to the experimental results of 3.1: the positive drug estazolam was administered intragastrically at 2.5 mg/kg; and the solvent control group was gavaged with an equal volume of solvent. Behavior test was performed in each group 30 min after single administration. The experiments were required to be conducted between 8:00 am and […], and all animals entered the test laboratory on the previous day.\nThe behavioral test method and behavioral observation indexes were the same as those in 3.1.\nData was expressed as mean±standard (mean±SD) difference, and statistics of data differences were made by one-way analysis of variance (ANOVA) or nonparametric test, and differences between groups were determined by P<0.05."}, "mTOR signaling pathway": {"test_system": "mTOR signaling pathway", "experiment": "Western blot of prefrontal proteins after single administration", "type": "in vivo, mice", "details": "30 mg/kg", "procedure": "3) Western Blot: For Detecting Effect of Compound M2 on a Change in mPFC Protein Content • Animals: C57 BL/6J male mice (18-20 g), divided into four groups, i.e. the control group, fluoxetine group, compound M2 (30 mg/kg) group, and esketamine group. • Primary antibodies for experimental use\n0.5 h/24 h after administration of C57 mice, brain tissue was sampled from the prefrontal brain area. After tissue samples were lysed and homogenized, quantification of proteins was performed using the BCA method, and changes in protein content in the prefrontal brain area 0.5 h/24 h after intraperitoneal administration of compound M2 were detected by steps of SDS-PAGE gel preparation, sample loading and electrophoresis, membrane transfer, sealing, primary antibody incubation, secondary antibody incubation, protein detection (development and fixation), etc."}, "[5]": {"test_system": "pyramidal neurons in prefrontal PrL brain area", "experiment": "Brain slice electrophysiology, sEPSC of mPFC pyramidal neurons", "type": "cell-based, mice", "details": "10 nM, 10 μM, 150 μM; for sEPSC distribution frequency: concentration-dependent, significant at 150 μM", "source_text": "2) Brain Slice Electrophysiological Experiment: For Detecting Effect of Compound M2 on mPFC Excitatory Synaptic Transmission • Animal: neonatal mice C57 BL/6J (20-30 days). • Instrument: vibratome (Leica), brain slice electrophysiological system (Axon). • Brain slice electrophysiological experiment method • SEPSC experiment method: Neonatal C57 mice were anesthetized and then perfused with artificial cerebrospinal fluid (ACSF). After decapitation, brain tissue was taken quickly and sliced by vibratome, with a thickness of a brain slice being 300 μm. After the brain slices were incubated at 28 °C for 1 h, whole-cell recordings of mPFC pyramidal neurons were made using a voltage clamp (−70 mV) through a brain slice electrophysiological system. The baseline recording time was 6 min, and then a drug to be tested was added through a perfusion system (the drug was dissolved using ACSF), and the recording time after adding the drug was 6-10 min. Recorded data was analyzed using Minianalysis software, and effects of the drug to be tested on sEPSC frequency and amplitude of medial prefrontal pyramidal neurons in C57 mice were compared.\nAll data analysis was done using spss data processing software, and data was expressed by Mean±s.e.m. One-way ANOVA was used to analyze the effect of compound M2 and the effect of compound M2 under the action of dopamine receptor antagonists on sEPSC current: and paired t test was used to analyze sEPSC experimental results. * was marked when p<0.05.\nDuring the experiment, 10 μM Bicuculine was added to the solution to block GABA receptor, so as to record sEPSC of pyramidal neurons. The experiment investigated effects of different concentrations of compound M2 on spontaneous excitatory postsynaptic […] (sEPSC) of pyramidal neurons in prefrontal PrL brain area, as shown in FIG. 2."}, "C57 BL/6J male mice": {"test_system": "C57 BL/6J male mice", "experiment": "Forced swimming experiment in mice", "type": "in vivo", "source_text": "1) Forced Swimming Experiment: Also Known as Despair Experiment, an Experiment Usually Used to Test Depression-Like Behavior of Mice\n• Animal: C57 BL/6J male mice (18-20 g)\nIntraperitoneal injection (i.p)"}, "[6]": {"details": "comparative study (Table 13), 20 mg/kg i.g."}, "[7]": {"details": "dosage exploration study (Table 12), 5 mg/kg i.g."}, "[8]": {"details": "dosage exploration study (Table 12), 10 mg/kg i.g."}, "[9]": {"details": "dosage exploration study (Table 12), 20 mg/kg i.g."}}, "note": "“Also recorded” adds a separate entry of the source.", "data": [{"compound": "CC(C)CNC(=O)/C=C/c1cc2c(c(C(F)(F)F)c1)OCO2", "note": "[Compound I-5]", "values": [{"measurement": "immobility time of tail suspension in mice", "setting": "mice [1]", "result": "significantly shorten the immobility time"}, {"measurement": "immobility time of forced swimming in mice", "setting": "mice [2]", "result": "significantly shorten the immobility time"}, {"measurement": "effective anxiolytic dosage in mice elevated plus maze experiment", "setting": "mice [3]", "result": 10, "unit": "mg/kg"}, {"measurement": "reserpine-induced body temperature decrease and akinesia in mice, degree of eye closure", "setting": "mice [4]", "result": "significantly antagonizing"}, {"measurement": "OE %", "setting": "ICR mice; [6]", "result": "47.01 ± 6.30", "unit": "%"}, {"measurement": "OT %", "setting": "ICR mice; [6]", "result": "46.70 ± 9.98", "unit": "%"}, {"measurement": "anxiolytic activity in elevated plus maze vs solvent control group", "setting": "ICR mice", "result": "significant anxiolytic activity"}]}, {"compound": "NC(=O)/C=C/c1cc2c(c(C(F)(F)F)c1)OCO2", "note": "[Compound M2]", "values": [{"measurement": "medial prefrontal p-TrkB content", "setting": "mTOR signaling pathway; 0.5 h after administration", "result": "increased"}, {"measurement": "medial prefrontal p-mTOR content", "setting": "mTOR signaling pathway; 0.5 h after administration", "result": "increased"}, {"measurement": "total content (mTOR, TrkB)", "setting": "mTOR signaling pathway; 0.5 h after administration", "result": "remaining unchanged"}, {"measurement": "content of medial prefrontal synaptogenesis-related protein PSD95", "setting": "mTOR signaling pathway; 24 h after single administration", "result": "significantly increased"}, {"measurement": "sEPSC distribution amplitude", "setting": "[5]", "result": "did not have significant effect"}, {"measurement": "sEPSC distribution frequency", "setting": "[5]", "result": "increased"}, {"measurement": "sEPSC distribution frequency", "setting": "[5]; listed as compound M2", "result": "significantly enhance"}, {"measurement": "sEPSC distribution amplitude", "setting": "[5]; listed as compound M2", "result": "does not have a significant effect"}, {"measurement": "antidepressant-like effect", "setting": "C57 BL/6J male mice; 24 h after a single i.p. administration, fluoxetine 10 mg/kg, esketamine 10 mg/kg, M2 3-30 mg/kg", "result": "had antidepressant-like effect"}, {"measurement": "immobility time of mice in forced swimming", "setting": "C57 BL/6J male mice; 24 h after single i.p. administration, dosage effect, significant at 30 mg/kg, 30 mg/kg", "result": "reduce the immobility time; also recorded: significantly reduced"}, {"measurement": "OE %", "setting": "ICR mice; [6]", "result": "57.94 ± 11.72", "unit": "%"}, {"measurement": "OT %", "setting": "ICR mice; [6]", "result": "57.36 ± 8.77", "unit": "%"}, {"measurement": "anxiolytic activity in elevated plus maze vs solvent control group", "setting": "ICR mice", "result": "significant anxiolytic activity"}, {"measurement": "OE %", "setting": "ICR mice; [7]", "result": "35.46 ± 10.13", "unit": "%"}, {"measurement": "OT %", "setting": "ICR mice; [7]", "result": "38.52 ± 12.19", "unit": "%"}, {"measurement": "OE %", "setting": "ICR mice; [8]", "result": "36.13 ± 14.12", "unit": "%"}, {"measurement": "OT %", "setting": "ICR mice; [8]", "result": "35.92 ± 13.11", "unit": "%"}, {"measurement": "OE %", "setting": "ICR mice; [9]", "result": "38.47 ± 7.13", "unit": "%"}, {"measurement": "OT %", "setting": "ICR mice; [9]", "result": "44.60 ± 9.33", "unit": "%"}, {"measurement": "effective dosage for single administration (anxiolytic)", "setting": "ICR mice; mice, elevated plus maze", "result": 20, "unit": "mg/kg"}]}]}
